Data as given in US20240383908A1, “SYNTHESIS AND APPLICATION OF PHOSPHATASE DEGRADER” (HINOVA PHARMACEUTICALS INC., priority 2021, published 2024).

What follows are molecules tested on MV-411 cell line (assay: Inhibition of cell proliferation, MV-411 (CCK-8)). Details: Homo sapiens, MV4-11, 120 h, MV411 cells, 5 days, read-out: Inhibition activity on the proliferation of different cell lines MV411 (IC50).
Type: cell-based
Description: • MV-411 cell line (COBIER, CBP-60522) • FBS (GEMINI, Cat. No. 900-108) • 0.01M PBS (Biosharp, Cat. No. 162262) • IMDM (Hyclone, Cat. No. SH30228.01) • Penicillin-Streptomycin (Gibco, Cat. No. 15140122) • DMSO (Sigma, Cat. No. D5879) • Cell counting kit-8 (Signalway Antibody, Cat. No. CP002) • Centrifuge Tube, 15 ml (Excell Bio, Cat. No. CS015-0001) • Cell Culture Dish, (WHB, Cat. No. CS016-0128) • 96-well cell culture cluster (Corning, Cat. No. 3599)
• (1) Cell culture medium: IMDM medium+10% FBS+1% Pen Strep; • (2) PBS buffer: PBS powder was dissolved in 2 L of ultrapure water and sterilized;
(§1) (1) MV-411 cells were cultured in the cell culture medium, and then well-growing cells were selected and inoculated in a 96-well plate at 80 μL/well, with 2×10^4 cells/well. The plate was incubated overnight in a 5% CO2 cell incubator at 37° C.
(§2) (2) 10 mM storage solution of each drug was prepared using dimethylsulfoxide (DMSO). The stock solution was diluted in a ratio of 1:3 with DMSO before use, and then the solution was serially diluted in a ratio of 1:3, to obtain 9 gradient concentrations. Each concentration was further diluted with the medium in a ratio of 1:200 (to ensure that the DMSO concentration in the culture system was 0.1%). Two wells were set for each concentration. 20 μL of each compound solution was added to the cell culture well (with a final concentration of 10 μM, 3.3 μM, 1.1 μM . . . ). The plate was gently shaken and mixed. Additionally, 3 negative control wells (only containing cells) and 3 blank control wells (only containing the medium) were included (6 wells were each added with 20 μL of DMSO diluted with the medium in a ratio of 1:200).
(§3) (1) After 5 days of cultivation, 10 μL of CCK-8 was added to each well, and then the plate was further cultured for 3 h at 37° C. in a 5% CO2 cell incubator.
(§4) (2) The absorbance (OD value) was measured at 450 nm with a multifunctional microplate reader. (3) The data were analyzed using the Dose-response-inhibition equation in GraphPad Prism8 software to obtain the IC50 value.

Structure (SMILES)	IC50 [nM]
CC1(N)CCN(c2cnc(Sc3cccc(NC(=O)CCCCCCCCN4CCN(c5ccc(C(=O)NCc6ccc7c(c6)CN(C6CCC(=O)NC6=O)C7=O)nn5)CC4)c3)cn2)CC1 (stereo not shown) [Compound 63]	< 1000
CC1(N)CCN(c2cnc(Sc3cccc(NC(=O)CCCCCCCCN4C5CCC4CN(c4ccc(C(=O)NCc6ccc7c(c6)CN(C6CCC(=O)NC6=O)C7=O)nn4)C5)c3)cn2)CC1 (stereo not shown) [Compound 119]	< 1000
CCC1(N)CCN(c2cnc(Sc3cccc(NC(=O)CCCCCCN4CC5(CCN(c6ccc(C(=O)NCc7ccc8c(c7)CN(C7CCC(=O)NC7=O)C8=O)nn6)C5)C4)c3)cn2)CC1 (stereo not shown) [Compound 161]	< 1000
NC1(CO)CCN(c2cnc(Sc3cccc(NC(=O)CCCCCCN4CC5(CCN(c6ccc(C(=O)NCc7ccc8c(c7)CN(C7CCC(=O)NC7=O)C8=O)nn6)C5)C4)c3)cn2)CC1 (stereo not shown) [Compound 168]	< 1000
CC1(N)CCN(c2cnc(Sc3cccc(NC(=O)CCCCCCCCN4CCN(c5ccc(C(=O)NCc6ccc7c(c6)CN(C6CCC(=O)NC6=O)C7=O)nn5)CC4C(F)(F)F)c3)cn2)CC1 (stereo not shown) [Compound 174]	1000 to 5000
Cc1ncsc1-c1ccc([C@H](C)NC(=O)[C@@H]2C[C@@H](O)CN2C(=O)[C@@H](NC(=O)CCCCCCCCN2CCN(C(=O)CCC(=O)Nc3cccc(Sc4ncc(N5CCC(C)(N)CC5)nc4N)c3Cl)CC2)C(C)(C)C)cc1 [Compound 999]	< 1000

The molecules below were run on KYSE 520 (assay: Inhibition of cell proliferation, KYSE 520 (CCK-8)). Details: Homo sapiens, KYSE 520 cells, read-out: Inhibition activity on the proliferation of different cell lines KYSE 520 (IC50).
Type: cell-based
Description: as §1, §2, §3, §4
Using a similar method, the IC50 value (nM) for the inhibitory activity of the compound according to the present invention against different cell lines was obtained, and the results are shown in Table 3 (++++: IC50>5 μM; +++: 1 μM<IC50<5 μM; ++: IC50<1 μM).

Structure (SMILES)	IC50 [nM]
Cc1ncsc1-c1ccc([C@H](C)NC(=O)[C@@H]2C[C@@H](O)CN2C(=O)[C@@H](NC(=O)CCCCCCCCN2CCN(C(=O)CCC(=O)Nc3cccc(Sc4ncc(N5CCC(C)(N)CC5)nc4N)c3Cl)CC2)C(C)(C)C)cc1 [Compound 999]	1000 to 5000
